Source: US20220338473A1, “USE OF BENZYL ALCOHOL AS A HERBICIDE” (INNOVI, priority 2019, published 2022)

How the values were obtained:
Petunia = experiment: Inter-row cultivation herbicide activity: effect on untreated adjacent plant; format: in vivo; set-up: key: yes: the dose and the mode of use when use in intercrop cultivation is prescribed; indicates that it is not
Experimental: (§1) Pure benzyl alcohol was used (PanReac AppliChem—ITW Reagents).
Two plants (Petunia) were planted with a spacing of 20 cm. Only one of the plants is treated, either in a foliar manner or by sprinkling in different concentrations (10 L/Ha, 20 L/Ha, 50 L/Ha, 100 L/Ha, 200 L/Ha, 300 L/Ha, […], 500 L/Ha, 600 L/Ha).

squares of grass = experiment: Outdoor assays with benzyl alcohol used alone; format: in vivo
Experimental: The outdoor assays were carried out on squares of grass having a surface area of 1 m^2. The application of the product is carried out with a compression sprayer which makes it possible to spray 20 to 100 g liquid over a surface area of 1 m^2 (equivalent to 200-1000 L/Ha).
The treated squares of grass are sprayed with a total quantity of water and pure benzyl alcohol (PanReac AppliChem—ITW Reagents) of 20 g (equivalent 200 l/Ha) including 0.5 g benzyl alcohol (equivalent to 5 L/Ha pure benzyl alcohol).
The control squares of grass receive a total quantity of 20 g water alone.
The following measurements and evaluations were carried out: • Percentage of the surface area affected: Following the assays in pots, it was noted that the change in colour correlated with the collapsing and the death of the plants. The time necessary to impact the colour of the grass as well as its surface area was evaluated. • Measurement of the collapsing of the grass: the distance between the ground and the highest part of 10 blades of grass selected at random in a square is measured. The average of these 10 blades is calculated and, after treatment, when this average distance is reduced by 30%, the collapsing time is determined.
Assay no. 2 was carried out under the same conditions as assay no. 1, except that the treated squares of grass are sprayed with a total quantity of water and benzyl alcohol of 60 g (equivalent 600 L/Ha) including 5 g pure benzyl alcohol (equivalent to 50 L/Ha pure benzyl alcohol).
Assay no. 3 was carried out under the same conditions as assay no. 1, except that the treated squares of grass are sprayed with a total quantity of 20 g pure benzyl alcohol (equivalent to 200 L/Ha pure benzyl alcohol).
Assay no. 4 was carried out under the same conditions as assay no. 1, except that the treated squares of grass are sprayed with a total quantity of water and benzyl alcohol of 60 g (equivalent 600 L/Ha) including 40 g pure benzyl alcohol (equivalent to 400 L/Ha pure benzyl alcohol).
Assay no. 5 was carried out under the same conditions as assay no. 1, except that the treated squares of grass are sprayed with a total quantity of water and benzyl alcohol of 100 g (equivalent 1000 L/Ha) including 60 g pure benzyl alcohol (equivalent to 600 L/Ha pure benzyl alcohol).
Assay no. 6 was carried out under the same conditions as assay no. 1, except that the treated squares of grass are sprayed with a total quantity of 80 g pure benzyl alcohol (equivalent to 800 L/Ha pure benzyl alcohol).

Grass = experiment: Non-selective activity on herbaceous plants (spraying, potted); format: in vivo, grass of the ryegrass type; settings: 4 g benzyl alcohol (200 L/Ha) in 8 g total (400 L/Ha)
Experimental: The non-selective character of benzyl alcohol was studied on 3 common varieties of herbaceous plants, two dicotyledons (dandelions and clover) and a monocotyledon (grass).
The grass of the ryegrass type makes it possible to confirm that the spectrum of action of benzyl alcohol is broad.
The assays were carried out on potted plants. The application of the product is carried out with a trigger spray bottle which makes it possible to spray 1 g of product per spraying, as microdroplets.
The treated plants are sprinkled with different quantities of water comprising different quantities of pure benzyl alcohol (PanReac AppliChem—ITW Reagents). The untreated (control) plants are sprinkled with the same total quantity of water only.
The plants are observed at the following times: T0, 6 h, 24 h, 48 h, 72 h, 96 h. The collapsing of the plant, the colour intensity and the diameter of the plant were measured as indicated in Example 1.

Hypoestes = experiment: Systemic application through contact with the above-ground parts (half of plant treated); format: in vivo; settings: potted, only one half sprayed, 1 g benzyl alcohol (50 L/Ha) in 8 g total (400 L/Ha)
Experimental: (§2) Assays were carried out on different plants by treatment on a fraction of the above-ground parts.
(§3) The assays were carried out on potted plants.
(§4) The systemic action was evaluated on several types of plants by treatment on a fraction of its above-ground parts.
(§5) The application of the product is carried out with a trigger spray bottle which makes it possible to spray 1 g of product per spraying, as microdroplets.
(§6) The treated plants are sprinkled on only one half, with different quantities of water comprising different quantities of pure benzyl alcohol (PanReac AppliChem—ITW Reagents). The untreated (control) plants are sprinkled with the same total quantity, but of water only.
(§7) The collapsing of the plant, the colour intensity and the diameter of the plant were measured as indicated in Example 1. The systemic effectiveness time was also measured in the following manner: • Systemic effectiveness time: 50% of the plant is initially treated with the product. The time necessary to see the first effects (systemically) appear on the part not treated (systemically) is determined.

Osteospermum = experiment: as above; format: in vivo; settings: potted, only one half sprayed, 2 g benzyl alcohol (100 L/Ha) in 2 g total (100 L/Ha)
Experimental: as §2, §3, §4, §5, §6, §7

Dandelion seeds = experiment: Preventative activity (anti-germination), seeds on agar in Petri dish; format: in vivo; settings: 0.35 g sprayed (benzyl alcohol pure, 700 L/Ha; glyphosate diluted at 0.5%)
Horned pansy = experiment: Systemic action through contact with the underground parts (saucer, capillary uptake); format: in vivo; settings: potted, saucer containing 40 g pure benzyl alcohol, uptake via roots
Experimental: as §3, §1
Two potted plants (Horned pansy) were each placed in a saucer containing respectively 40 g pure benzyl alcohol or 40 g water (control). By capillary action, the liquids contained in the saucer are absorbed by the earth and come into contact with the roots.
The systemic effectiveness time, the collapsing of the plant, the colour intensity and the diameter of the plant were measured as indicated in Examples 1 and 2.

Question: Which results are given for `OCc1ccccc1` [benzyl alcohol]?
Answer: Inter-row use possible (untreated plant at 20 cm does not collapse) (Petunia; foliar, 50 L/Ha): no; Inter-row use possible (untreated plant at 20 cm does not collapse) (Petunia; foliar, 100 L/Ha): no; Inter-row use possible (untreated plant at 20 cm does not collapse) (Petunia; foliar, 200 L/Ha): no; Inter-row use possible (untreated plant at 20 cm does not collapse) (Petunia; foliar, less than 50 L/Ha): no; Inter-row use possible (untreated plant at 20 cm does not collapse) (Petunia; sprinkling, 50 L/Ha): yes; Inter-row use possible (untreated plant at 20 cm does not collapse) (Petunia; sprinkling, 100 L/Ha): yes; Inter-row use possible (untreated plant at 20 cm does not collapse) (Petunia; sprinkling, 200 L/Ha): no; Inter-row use possible (untreated plant at 20 cm does not collapse) (Petunia; sprinkling, less than 50 L/Ha): yes; Collapsing of the grass: time after treatment to average collapsing of 30% (squares of grass; Assay no. 1: 1 m2 grass outdoors, 0.5 g benzyl alcohol (5 L/Ha) in 20 g total (200 l/Ha)): 72 h; Maximum percentage of the surface area affected (squares of grass; Assay no. 1: 1 m2 grass outdoors, 0.5 g benzyl alcohol (5 L/Ha) in 20 g total (200 l/Ha), observed 96 h after treatment): 45%; Collapsing of the grass: time after treatment to average collapsing of 30% (squares of grass; Assay no. 2: 1 m2 grass outdoors, 5 g benzyl alcohol (50 L/Ha) in 60 g total (600 L/Ha)): 48 h; Maximum percentage of the surface area affected (squares of grass; Assay no. 2: 1 m2 grass outdoors, 5 g benzyl alcohol (50 L/Ha) in 60 g total (600 L/Ha), observed 72 h after treatment): 60%; Collapsing of the grass: time after treatment to average collapsing of 30% (squares of grass; Assay no. 3: 1 m2 grass outdoors, 20 g pure benzyl alcohol (200 L/Ha)): 48 h; Maximum percentage of the surface area affected (squares of grass; Assay no. 3: 1 m2 grass outdoors, 20 g pure benzyl alcohol (200 L/Ha), observed 48 h after treatment): 80%; Collapsing of the grass: time after treatment to average collapsing of 30% (squares of grass; Assay no. 4: 1 m2 grass outdoors, 40 g benzyl alcohol (400 L/Ha) in 60 g total (600 L/Ha)): 24 h; Maximum percentage of the surface area affected (squares of grass; Assay no. 4: 1 m2 grass outdoors, 40 g benzyl alcohol (400 L/Ha) in 60 g total (600 L/Ha), observed 24 h after treatment): 100%; Collapsing of the grass: time after treatment to average collapsing of 30% (squares of grass; Assay no. 5: 1 m2 grass outdoors, 60 g benzyl alcohol (600 L/Ha) in 100 g total (1000 L/Ha)): 6 h; Maximum percentage of the surface area affected (squares of grass; Assay no. 5: 1 m2 grass outdoors, 60 g benzyl alcohol (600 L/Ha) in 100 g total (1000 L/Ha), observed 24 h after treatment): 100%; Collapsing of the grass: time after treatment to average collapsing of 30% (squares of grass; Assay no. 6: 1 m2 grass outdoors, 80 g pure benzyl alcohol (800 L/Ha)): 6 h; Maximum percentage of the surface area affected (squares of grass; Assay no. 6: 1 m2 grass outdoors, 80 g pure benzyl alcohol (800 L/Ha), observed 6 h after treatment): 100%; Collapsing (score and time): time to pass from score 5 (T0) to score 1 (Grass): 1 to 48 h; Colour intensity (score and time): time to pass from score 5 (T0) to score 1 (Grass): 1 to 24 h; Diameter (score and time): time to pass from score 5 (T0) to score 1 (Grass): 1 to 48 h; A: systemic effectiveness time (whole plant affected) (Hypoestes): at 96 h; B: collapsing (score and time): time to pass from score 5 (T0) to score 1 (Hypoestes): 120 h; C: colour intensity (score and time): time to pass from score 5 (T0) to score 1 (Hypoestes): 120 h; D: diameter (score and time): time to pass from score 5 (T0) to score 1 (Hypoestes): 144 h; A: systemic effectiveness time (whole plant affected) (Osteospermum): at 96 h; B: collapsing (score and time): time to pass from score 5 (T0) to score 1 (Osteospermum): 144 h; C: colour intensity (score and time): time to pass from score 5 (T0) to score 1 (Osteospermum): 120 h; D: diameter (score and time): time to pass from score 5 (T0) to score 1 (Osteospermum): 144 h; Percentage of germination at 11 days (Dandelion seeds): 0%; Collapsing: time to pass from a score of 5 to a score of 1 (Horned pansy): 72 h; Colour intensity: time to pass from a score of 5 to a score of 1 (Horned pansy): 48 h; Diameter of the plant: time to pass from a score of 5 to a score of 1 (Horned pansy): 96 h; Systemic effectiveness time: the whole plant is affected (Horned pansy): 48 h
